Laboratory results reported in US5891877A, “Pharmaceutical compounds” (Xenova Limited, priority 1996, dated 1999).
Where a name gives a salt, the structure may show the parent alone.

Target: PAI-1 (Homo sapiens, UniProt P05121)
Assay: PAI-1 inhibition in the S2251 chromogenic substrate assay (PAI functional assay)
Assay type: biochemical
Details: Table 1, second part; for inhibition at 20 µM / inhibition at 50 µM / inhibition at 100 µM: read-out: INHIBITION OF PAI-1 (degree of inhibition); for IC50: PAI-1, S2251 assay; for INHIBITION OF PAI-1 (degree of inhibition): unit assumed
In short: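 Read-out is p-nitroaniline absorbance at 405 nm from plasmin cleavage of S2251. PAI-1 is first incubated with test compound before entering the tPA assay, where uninhibited tPA generates plasmin from plasminogen.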

Chain of PAI-1 (P05121 24-402): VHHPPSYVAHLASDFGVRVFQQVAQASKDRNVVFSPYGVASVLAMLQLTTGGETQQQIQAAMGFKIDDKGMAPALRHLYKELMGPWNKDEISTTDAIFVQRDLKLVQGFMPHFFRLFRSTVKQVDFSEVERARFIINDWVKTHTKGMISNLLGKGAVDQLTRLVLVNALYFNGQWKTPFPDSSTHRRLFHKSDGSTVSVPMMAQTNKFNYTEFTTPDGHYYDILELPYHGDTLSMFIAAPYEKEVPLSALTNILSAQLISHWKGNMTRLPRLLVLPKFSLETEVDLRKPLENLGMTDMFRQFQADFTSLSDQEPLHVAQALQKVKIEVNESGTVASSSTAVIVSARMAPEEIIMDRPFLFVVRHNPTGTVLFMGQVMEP

inhibition at 20 µM (20 μM) [%] | inhibition at 50 µM [%] | inhibition at 100 µM (100 μM) [%] | IC50 [µM] | INHIBITION OF PAI-1 (degree of inhibition) (20 μM) [%] | INHIBITION OF PAI-1 (degree of inhibition) (100 μM) [%] | Compound
58 | – | – | 9 | – | – | CN(C)CCOCCOc1ccc(/C=c2\[nH]c(=O)/c(=C/c3ccccc3)[nH]c2=O)s1 [Compound 5388, (3Z,6Z)-6-Benzylidene-3-(5-(2-(2-dimethylaminoethoxy)ethoxy)-2-thienylmethylene)-2,5-piperazinedione]
– | – | – | 12 | 60 | – | CN(C)CCOCCOc1ccc(/C=c2\[nH]c(=O)/c(=C/c3ccccc3)[nH]c2=O)s1 [Compound 5388.HCl]
55 | – | – | 2.5 | – | – | CN(C)CCCCCCOc1ccc(/C=c2\[nH]c(=O)/c(=C/c3ccccc3)[nH]c2=O)s1 [Compound 5389, (3Z,6Z)-6-Benzylidene-3-(5-(6-dimethylaminohexyloxy)-2-thienylmethylene)-2,5-piperazinedione]
– | – | – | – | 57 | – | CN(C)CCCCCCOc1ccc(/C=c2\[nH]c(=O)/c(=C/c3ccccc3)[nH]c2=O)s1 [Compound 5389.HCl]
– | – | – | 6.5 | 64 | – | O=C(NCCN1CCc2ccccc2C1)c1ccc(/C=c2\[nH]c(=O)/c(=C/c3ccccc3)[nH]c2=O)cc1 [Compound 5391, N-(2-(1,2,3,4-Tetrahydro-2-isoquinolyl)ethyl)-4-((3Z,6Z)-6-benzylidene-2,5-dioxo-3-piperazinylidene)methylbenzamide]
– | – | – | 3.5 | 100 | – | O=C(NCCN1CCc2ccccc2C1)c1ccc(/C=c2\[nH]c(=O)/c(=C/c3ccccc3)[nH]c2=O)cc1 [Compound 5391.HCl]
– | – | – | 20 | 58 | – | COc1cc2c(cc1OC)CN(CCc1ccc(NC(=O)c3ccc(/C=c4\[nH]c(=O)/c(=C/c5ccccc5)[nH]c4=O)cc3)cc1)CC2 [Compound 5393.HCl]
76 | – | – | 14 | – | – | COc1cc2c(cc1OC)CN(CCc1ccc(NC(=O)c3ccc(/C=c4\[nH]c(=O)/c(=C/c5ccccc5)[nH]c4=O)cc3)cc1)CC2 [Compound 5393]
59 | – | – | 16 | – | – | O=C(NCCCN1CCc2ccccc2C1)c1ccc(/C=c2\[nH]c(=O)/c(=C/c3ccccc3)[nH]c2=O)cc1 [Compound 5394, N-(3-(1,2,3,4-Tetrahydro-2-isoquinolyl)propyl)-4-((3Z,6Z)-6-benzylidene-2,5-dioxo-3-piperazinylidene)methylbenzamide]
– | – | – | 17 | 62 | – | O=C(NCCCN1CCc2ccccc2C1)c1ccc(/C=c2\[nH]c(=O)/c(=C/c3ccccc3)[nH]c2=O)cc1 [Compound 5394.HCl]

The next lines start with the compound.

Compound | inhibition at 20 µM (20 μM) [%] | inhibition at 50 µM [%] | inhibition at 100 µM (100 μM) [%] | IC50 [µM] | INHIBITION OF PAI-1 (degree of inhibition) (20 μM) [%] | INHIBITION OF PAI-1 (degree of inhibition) (100 μM) [%]
CN(C)CCOc1ccc(/C=c2\[nH]c(=O)/c(=C/c3ccoc3)[nH]c2=O)cc1 [Compound 5062, (3Z,6Z)-6-(4-(2-Dimethylaminoethoxy)benzylidene)-3-(3-furylmethylene)-2,5-piperazinedione] | 87 | 81 | 78 | – | – | –
CN(C)CCOCc1ccc(/C=c2\[nH]c(=O)/c(=C/c3ccsc3)[nH]c2=O)cc1 [Compound 5069, (3Z,6Z)-6-(4-(2-Dimethylaminoethoxymethyl)benzylidene)-3-(3-thenylidene)-2,5-piperazinedione] | 75 | 71 | 70 | – | – | –
CN(C)CCOc1ccc(/C=c2\[nH]c(=O)/c(=C/c3ccsc3)[nH]c2=O)cc1 [Compound 5071, (3Z,6Z)-6-(4-(2-Dimethylaminoethoxy)benzylidene)-3-(3-thenylidene)-2,5-piperazinedione] | 73 | 82 | 80 | – | – | –
CSc1ccc(/C=c2\[nH]c(=O)/c(=C/c3ccc(OCCN(C)C)cc3)[nH]c2=O)s1 [Compound 5072, (3Z,6Z)-6-(4-(2-Dimethylaminoethoxy)benzylidene)-3-(5-methylthio-2-thenylidene)-2,5-piperazinedione] | 61 | 61 | 60 | – | – | –
CN(C)CCSCc1ccc(/C=c2\[nH]c(=O)/c(=C/c3ccoc3)[nH]c2=O)cc1 [Compound 5073, (3Z,6Z)-6-(4-(2-Dimethylaminoethylthiomethyl)benzylidene)-3-(3-furylmethylene)-2,5-piperazinedione] | 14 | 70 | 63 | – | – | –
CN(C)CC(=O)NCc1ccc(/C=c2\[nH]c(=O)/c(=C/c3ccsc3)[nH]c2=O)cc1 [Compound 5074, (3Z,6Z)-6-(4-Dimethylaminoacetamidomethylbenzylidene)-3-(3-thenylidene)-2,5-piperazinedione] | 26 | 57 | 47 | – | – | –
O=c1[nH]/c(=C\c2cc(Cl)sc2Cl)c(=O)[nH]/c1=C\c1ccccc1 [Compound 5075, (3Z,6Z)-3-(2,5-Dichloro-3-thenylidene)-6-benzylidene-2,5-piperazinedione] | 52 | 88 | 88 | – | – | –
CN(C)CCOCc1ccc(/C=c2\[nH]c(=O)/c(=C/c3ccoc3)[nH]c2=O)cc1 [Compound 5077, (3Z,6Z)-6-(4-(2-Dimethylaminoethoxymethyl)benzylidene)-3-(3-furylmethylene)-2,5-piperazinedione] | 42 | 46 | 34 | – | – | –
CN(C)CCSCc1ccc(/C=c2\[nH]c(=O)/c(=C/c3ccsc3)[nH]c2=O)cc1 [Compound 5078, (3Z,6Z)-6-(4-(2-Dimethylaminoethylthiomethyl)benzylidene)-3-(3-thenylidene)-2,5-piperazinedione] | 11 | 67 | 60 | – | – | –
CN(C)CC(=O)NCc1ccc(/C=c2\[nH]c(=O)/c(=C/c3ccccc3Br)[nH]c2=O)cc1 [Compound 5079, (3Z,6Z)-3-(2-Bromobenzylidene)-6-(4-dimethylaminoacetamidomethylbenzylidene)-2,5-piperazinedione] | 14 | 58 | 44 | – | – | –
CN(C)CC(=O)NCc1ccc(/C=c2\[nH]c(=O)/c(=C/c3ccoc3)[nH]c2=O)cc1 [Compound 5081, (3Z,6Z)-6-(4-Dimethylaminoacetamidomethylbenzylidene)-3-(3-furylmethylene)-2,5-piperazinedione] | 50 | 34 | 25 | – | – | –
CN(C)CCCOc1ccc(/C=c2\[nH]c(=O)/c(=C/c3ccc4ccccc4c3)[nH]c2=O)cc1 [Compound 5188, (3Z,6Z)-6-(4-(3-Dimethylaminopropoxy)benzylidene)-3-(2-Naphthylmethylene)-2,5-piperazinedione] | 94 | – | 90 | 3.5 | – | –
CN(C)CCCOc1ccc(/C=c2\[nH]c(=O)/c(=C/c3cccc4ccccc34)[nH]c2=O)cc1 [Compound 5200, (3Z,6Z)-6-(4-(3-Dimethylaminopropoxy)benzylidene)-3-(1-Naphthylmethylene)-2,5-piperazinedione] | – | – | – | – | 10 | 10
CN(C)CCCOc1ccc(/C=c2\[nH]c(=O)/c(=C/c3cccc4ccccc34)[nH]c2=O)cc1 [Compound 5205] | – | – | – | 100 | 33 | 56
CN(C)CCCOc1ccc(/C=c2\[nH]c(=O)/c(=C/c3ccc4ccccc4c3)[nH]c2=O)cc1 [Compound 5206] | – | – | – | 3 | 78 | 72
CN(C)CCN(C)c1ccc(/C=c2\[nH]c(=O)/c(=C/c3ccccc3)[nH]c2=O)s1 [Compound 5299, (3Z,6Z)-6-Benzylidene-3-(5-(2-dimethylaminoethyl)methylamino-2-thienylmethylene)-2,5-piperazinedione] | – | – | – | 7 | – | –
CN(C)CCOc1ccc(/C=c2\[nH]c(=O)/c(=C/c3ccccc3)[nH]c2=O)s1 [Compound 5324, (3Z,6Z)-6-Benzylidene-3-(5-(2-dimethylaminoethoxy)-2-thienylmethylene)-2,5-piperazinedione] | – | – | – | 9 | – | –
CN(C)CCOc1csc(/C=c2\[nH]c(=O)/c(=C/c3ccccc3)[nH]c2=O)c1 [Compound 5327, (3Z,6Z)-6-Benzylidene-3-(4-(2-dimethylaminoethoxy)-2-thienylmethylene)-2,5-piperazinedione] | 17 | – | – | – | – | –
CN(C)CCc1ccc(/C=c2\[nH]c(=O)/c(=C/c3ccccc3)[nH]c2=O)s1 [Compound 5335, (3Z,6Z)-6-Benzylidene-3-(5-(2-dimethylaminoethyl)-2-thienylmethylene)-2,5-piperazinedione] | – | – | – | 22 | – | –
CN(C)CCCOc1ccc(/C=c2\[nH]c(=O)/c(=C/c3ccc(C(=O)N4CCc5ccccc5C4)cc3)[nH]c2=O)cc1 [Compound 5367] | – | – | – | 18 | – | –
O=C(NCCCCN1CCc2ccccc2C1)c1ccc(/C=c2\[nH]c(=O)/c(=C/c3ccccc3)[nH]c2=O)cc1 [Compound 5371, N-(4-(1,2,3,4-Tetrahydro-2-isoquinolyl)butyl)-4-((3Z,6Z)-6-benzylidene-2,5-dioxo-3-piperazinylidene)methylbenzamide] | – | – | – | 12 | – | –
CN(C)CCCOc1ccc(/C=c2\[nH]c(=O)/c(=C/c3ccc(C(=O)N4CCc5ccccc5C4)cc3)[nH]c2=O)cc1 [Compound 5376] | – | – | – | 12 | – | –
O=C(NCCCCN1CCc2ccccc2C1)c1ccc(/C=c2\[nH]c(=O)/c(=C/c3ccccc3)[nH]c2=O)cc1 [Compound 5379] | 65 | – | – | 15 | – | –
CN(C)CCCOc1ccc(/C=c2\[nH]c(=O)/c(=C/c3ccc(C(=O)NCCN4CCc5ccccc5C4)cc3)[nH]c2=O)cc1 [Compound 5386, N-(2-(1,2,3,4-Tetrahydro-2-isoquinolyl)ethyl)-4-((3Z,6Z)-6-(4-(3-dimethylaminopropoxy)benzylidene)-2,5-dioxo-3-piperazinylidene)methylbenzamide] | – | – | – | 18 | – | –
